Here are results for two sequences from patent publication US20030100508A1, “Carbohydrate epitope mimic compounds and uses thereof” (priority 1999, published 2003).

The conditions of assay [1]: Hall et al. 1995; cited from earlier work.
In assay [2] the test system is neural cell adhesion to laminin. The settings on record: Hall et al. 1995; cited from earlier work.
Assay [3] in a line: L2 glycolipid binding to immobilized CD4 peptide. The settings on record: L2 glycolipid 3 μg/ml, detected with L2-412. On the procedure:
The ability of isolated L2/HNK-1 glycolipid to bind to immobilized CD-4 peptide was tested. CD-4 peptide was immobilized in water at different concentrations and dried onto microtiter plates overnight. The microtiter plates were blocked with 1% BSA in PBS, incubated with 3 ug/ml L2 glycolipid for 1.5 hours at room temperature, and washed with PBS. Bound L2 glycolipid was detected with L2-412 antibody followed by HRP-linked secondary antibody.
It was determined whether L2 glycolipid could bind substrate coated CD-4 peptide. CD4 peptide was coated onto microtiter plates by coating with serial dilutions of CD4 peptide (1 mg/ml 1:1 in EtOH) and allowed to dry overnight. The wells were incubated with L2-glycolipid (3 μg/ml) for 1 hour at RT, L2-412 antibody (1: 1000) then added and further incubated for 3 hours at RT. Goat anti-rat antibody was then added, incubated 2 hours at RT and detected by HRP-linked secondary antibody.
The CD-4 peptide was conjugated to Ovalbumin (by similar methods as for BSA conjugation described in Materials and Methods) to generate CD4-OV, and binding experiments were performed to assess binding of conjugated peptide to laminin and L2 glycolipid. In particular, it was necessary to confirm that CD4 peptide and laminin compete directly in binding to L2/HNK-1 glycolipids. […]

The next assay concerns the target T1, laminin (Mus musculus, UniProt P19137).
T1 construct: purchased Gibco/BRL
As to the kind of experiment: Competition of L2 glycolipid binding to immobilized laminin by CD4 peptide. The settings on record: L2 glycolipids 3 μg/ml, varying CD-4 peptide. On the procedure:
The CD-4 peptide was conjugated to Ovalbumin (by similar methods as for BSA conjugation described in Materials and Methods) to generate CD4-OV, and binding experiments were performed to assess binding of conjugated peptide to laminin and L2 glycolipid. In particular, it was necessary to confirm that CD4 peptide and laminin compete directly in binding to L2/HNK-1 glycolipids. In this set of experiments, microtiter plates were coated with serial dilutions of either CD4-OV or laminin (each 10 μg/ml 1:1 in EtOH, allowed to dry overnight). The coated plates were then incubated in the following combinations: (a) CD4-OV coated plates with L2 glycolipid (3 μg/ml, 1 hr, RT); (b) laminin coated plates with L2 glycolipid (3 μg/ml. 1 hr, RT); and (c) laminin coated plates with CD-4-OV (1 μg/ml) and L2 glycolipids (3 μg/ml) for 1 hr at RT. Similar to the previous set of experiments L2-412 antibody was added (1:1000, 3 hr, RT), followed by HRP-conjugated-goat anti-rat antibody (2 hrs, RT) and detection by HRP-linked secondary antibody. The results (not shown) confirmed that CD4 peptide and laminin compete directly in binding to L2/HNK-1 glycolipids.
To further assess whether the CD-4 peptide could inhibit L2 glycolipid binding to laminin, a fixed amount of L2 glycolipid was incubated with immobilized laminin, in the presence of varying concentrations of CD-4 peptide. […]

Turning to KGVSSRSYVGCIKNLEISRST, the “binding to the L2/HNK-1 carbohydrate” value in assay [1] is “bound to the L2/HNK-1 carbohydrate in a concentration-dependent manner”. Moreover, in assay [2], the “inhibition of HNK-1-mediated neural cell adhesion to laminin” value was “inhibited HNK-1-mediated neural cell adhesion to laminin”.

On to RASSSKSWITFDLKNKEVSVK [CD4 peptide], for which the “L2 glycolipid binding to immobilized CD4 peptide (words)” value in assay [3] is reported as “binds to CD4 peptide in a concentration-dependent manner”; in assay [3] (listed as CD-4 peptide), “binds L2 glycolipid in a concentration dependent manner”. Moreover, the “competition of L2 glycolipid binding to immobilized laminin” value with laminin is “competes with L2 glycolipid binding to immobilized laminin in a concentration-dependent manner”.
